According to US8722849B2, “Polypeptides” (Novo Nordisk A/S, priority 2011, dated 2014):
In brackets after ≈: the same amount, converted by molar mass. Like-named read-outs stand apart in the source and are kept apart here. Starred links: 1 amine or outer side, 2 acyl side, 3 side chain; linkers in the order of their positions; H or OH if unused. Positions of bridges follow the written chain, without caps; N, C: chain ends. Residues, ends and D or L forms follow the SMILES beside them. *: point of attachment. C20 diacid = O=C(O)CCCCCCCCCCCCCCCCCCC(=O)*; C18 diacid = O=C(O)CCCCCCCCCCCCCCCCC(=O)*; γGlu = O=C(O)[C@H](CCC(=O)[*:2])N[*:1]

Tests used:
[1] = molecular target: T1, human amylin receptor (amylin 3(a) receptor: human calcitonin receptor + RAMP-3) (Homo sapiens, UniProt O60896+P30988); experiment: Assay (II)a functional CRE-luciferase assay, human amylin receptor; assay type: cell-based; conditions: Table 2; BHK amylin 3(a)-receptor/CRE-luc cells
T1 construct: expressed in transfected cells; host or cells: BHK570
T1 sequence (P30988 25-474): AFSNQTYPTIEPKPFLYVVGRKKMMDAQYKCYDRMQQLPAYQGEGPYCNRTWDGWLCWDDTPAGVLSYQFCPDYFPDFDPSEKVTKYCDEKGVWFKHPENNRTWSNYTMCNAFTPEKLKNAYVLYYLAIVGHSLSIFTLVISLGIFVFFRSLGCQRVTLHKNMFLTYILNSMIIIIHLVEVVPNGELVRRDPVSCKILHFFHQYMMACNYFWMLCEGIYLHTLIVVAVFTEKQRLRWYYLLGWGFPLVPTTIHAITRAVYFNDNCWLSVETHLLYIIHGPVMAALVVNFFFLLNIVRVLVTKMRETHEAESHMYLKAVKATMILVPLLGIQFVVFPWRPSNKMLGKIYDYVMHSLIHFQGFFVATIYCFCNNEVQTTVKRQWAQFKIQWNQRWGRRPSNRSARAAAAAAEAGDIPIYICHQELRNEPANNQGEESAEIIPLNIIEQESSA
T1 sequence (O60896 24-148 partner): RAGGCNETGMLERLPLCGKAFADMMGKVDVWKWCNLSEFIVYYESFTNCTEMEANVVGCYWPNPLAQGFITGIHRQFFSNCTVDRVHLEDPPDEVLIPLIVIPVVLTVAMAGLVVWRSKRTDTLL

[2] = molecular target: T2, human calcitonin receptor (Homo sapiens, UniProt P30988); experiment: Assay (II)a functional CRE-luciferase assay, human calcitonin receptor; assay type: cell-based; conditions: Table 7; human calcitonin (CTa) receptor
T2 construct: expressed in transfected cells; host or cells: BHK570
T2 sequence (P30988 25-474): T1 sequence (P30988 25-474)

[3] = molecular target: T3, rat amylin 3(a) receptor (rat calcitonin(a) receptor + rat RAMP3) (Rattus norvegicus, UniProt P32214+Q9JJ73); experiment: Assay (II)b functional cAMP FlashPlate assay, rat amylin receptor; assay type: cell-based; conditions: Table 11
T3 construct: expressed in transfected cells; host or cells: BHK tk'ts 13
T3 sequence (P32214 25-479 isoform P32214-2 limits assumed): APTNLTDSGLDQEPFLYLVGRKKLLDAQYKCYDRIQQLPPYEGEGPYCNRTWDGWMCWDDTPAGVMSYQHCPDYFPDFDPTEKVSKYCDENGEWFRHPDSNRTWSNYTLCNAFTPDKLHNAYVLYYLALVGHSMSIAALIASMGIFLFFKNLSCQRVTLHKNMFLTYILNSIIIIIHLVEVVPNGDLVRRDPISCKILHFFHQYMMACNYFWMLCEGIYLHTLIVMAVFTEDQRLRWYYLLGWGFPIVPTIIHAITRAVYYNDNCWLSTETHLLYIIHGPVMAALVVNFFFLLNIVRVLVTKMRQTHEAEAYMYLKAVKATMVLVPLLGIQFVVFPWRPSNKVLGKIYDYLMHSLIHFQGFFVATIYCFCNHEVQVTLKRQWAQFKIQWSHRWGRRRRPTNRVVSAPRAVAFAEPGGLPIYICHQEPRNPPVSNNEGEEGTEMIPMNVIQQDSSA
T3 sequence (Q9JJ73 23-147 partner): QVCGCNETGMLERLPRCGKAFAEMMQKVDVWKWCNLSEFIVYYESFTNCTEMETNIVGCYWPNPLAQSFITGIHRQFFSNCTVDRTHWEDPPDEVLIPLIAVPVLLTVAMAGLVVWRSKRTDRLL
Summary of the method: (§1)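 BHK tk'ts 13 cells transiently transfected with rat calcitonin(a) receptor, alone or with rat RAMP3 (amylin 3(a)), were stimulated 24 hours later with sample for 30 min in buffer containing IBMX. cAMP measured by competitive radioactive FlashPlate assay, scintillation read after 3 h detection incubation.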

[4] = molecular target: T4, rat calcitonin (a) receptor (Rattus norvegicus, UniProt P32214); experiment: Assay (II)b functional cAMP FlashPlate assay, rat calcitonin receptor; assay type: cell-based; conditions: Table 11; read-out: CTa receptor rat EC50
T4 construct: expressed in transfected cells; host or cells: BHK tk'ts 13
T4 sequence (P32214 25-479 isoform P32214-2 limits assumed): T3 sequence (P32214 25-479 isoform P32214-2 limits assumed)
Summary of the method: as §1

[5] = Assay (IV) determination of solubility; assay type: physicochemical
Summary of the method: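 Solubility is measured across pH 3.0–8.0 by mixing a ~500 nmol/ml aqueous polypeptide stock 1:1 with 100 mM glycylglycine or bistrispropane buffers. Samples stand 18 hours at room temperature, then are centrifuged and the soluble concentration is determined by HPLC.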

[6] = bistrispropane buffer, pH 6, pH 6.0, read-out: Solubility pH 6.0
[7] = bistrispropane buffer, pH 6.5, pH 6.5, read-out: Solubility pH 6.5
[8] = bistrispropane buffer, pH 7.5, pH 7.5, read-out: Solubility pH 7.5
[9] = bistrispropane buffer, pH 8, pH 8.0, read-out: Solubility pH 8.0
[10] = glycylglycine buffer, pH 3, pH 3.0, read-out: Solubility pH 3.0
[11] = glycylglycine buffer, pH 4, pH 4.0, 18 hours at room temperature, Table 2, read-out: Solubility pH 4.0
[12] = glycylglycine buffer, pH 4, pH 4.0, read-out: Solubility pH 4.0
[13] = glycylglycine buffer, pH 5, pH 5.0, read-out: Solubility pH 5.0
[14] = bistrispropane buffer, pH 7, pH 7.0, 18 hours at room temperature, Table 3, read-out: Solubility pH 7.0
[15] = bistrispropane buffer, pH 7, pH 7.0, read-out: Solubility pH 7.0

| EC50 [1] | EC50 [2] | EC50 [3] | EC50 [4] | solubility at 18 h [5, 6] | solubility at 18 h [5, 7] | solubility at 18 h [5, 8] | solubility at 18 h [5, 9] | solubility at 18 h [5, 10] | solubility at 18 h [5, 11] | solubility at 18 h [5, 12] | solubility at 18 h [5, 13] | solubility at 18 h [5, 14] | solubility at 18 h [5, 15] | solubility at 18 h ([5]; bistrispropane buffer, pH 7, pH 7.0, Table 8, read-out: Solubility pH 7.0) | Structure (SMILES) |
| --- | --- | --- | --- | --- | --- | --- | --- | --- | --- | --- | --- | --- | --- | --- | --- |
| 603 pM | 543 pM | 401 pM | 4870 pM | > 200 µM | 6 µM (≈ 28.7 µg/mL) | 6 µM (≈ 28.7 µg/mL) | 55 µM (≈ 263 µg/mL) | > 200 µM | > 200 µM | > 200 µM | > 200 µM | – | – | – | CC[C@H](C)[C@H](NC(=O)[C@@H]1CCCN1C(=O)CNC(=O)[C@H](Cc1ccccc1)NC(=O)[C@H](CC(N)=O)NC(=O)[C@H](CC(N)=O)NC(=O)[C@H](CO)NC(=O)[C@H](CO)NC(=O)[C@H](Cc1c[nH]cn1)NC(=O)[C@H](Cc1c[nH]cn1)NC(=O)[C@H](CC(C)C)NC(=O)[C@H](Cc1ccccc1)NC(=O)[C@H](CCC(=O)O)NC(=O)[C@H](C)NC(=O)[C@H](CC(C)C)NC(=O)[C@H](CCCNC(=N)N)NC(=O)[C@H](CCC(N)=O)NC(=O)[C@@H](NC(=O)[C@H](C)NC(=O)[C@@H]1CSSC[C@H](NC(=O)[C@H](Cc2c[nH]cn2)NC(=O)[C@H](Cc2c[nH]cn2)NC(=O)[C@H](Cc2c[nH]cn2)NC(=O)CC[C@H](NC(=O)CCCCCCCCCCCCCCCCCCC(=O)O)C(=O)O)C(=O)N[C@@H](Cc2c[nH]cn2)C(=O)N[C@@H]([C@@H](C)O)C(=O)N[C@@H](C)C(=O)N[C@@H]([C@@H](C)O)C(=O)N1)[C@@H](C)O)C(=O)N[C@@H](CC(C)C)C(=O)N1CCC[C@H]1C(=O)N1CCC[C@H]1C(=O)N[C@H](C(=O)N[C@@H](CC(N)=O)C(=O)N[C@H](C(=O)NCC(=O)N[C@@H](CO)C(=O)N[C@@H](Cc1c[nH]cn1)C(=O)N[C@H](C(=O)N[C@@H](Cc1ccc(O)cc1)C(N)=O)[C@@H](C)O)C(C)C)[C@@H](C)O [Example 32, N-alpha-[(S)-4-Carboxy-4-(19-carboxynonadecanoylamino)butyryl]-His-His-[His1,His3,Glu14,His17,His35]-pramlintide] ({C20 diacid-γGlu}-HHHCHTATCATQRLAEFLHHSSNNFGPILPPTNVGSHTY-NH2; disulfide 4-9 (inferred)) |
| 73.9 pM | 274 pM | 134 pM | 2430 pM | > 200 µM | > 200 µM | > 200 µM | > 200 µM | > 200 µM | > 200 µM | > 200 µM | > 200 µM | > 200 µM | > 200 µM | – | CC[C@H](C)[C@H](NC(=O)[C@@H]1CCCN1C(=O)CNC(=O)[C@H](Cc1ccccc1)NC(=O)[C@H](CC(N)=O)NC(=O)[C@H](CC(N)=O)NC(=O)[C@H](CO)NC(=O)[C@H](CO)NC(=O)[C@H](Cc1c[nH]cn1)NC(=O)[C@H](Cc1c[nH]cn1)NC(=O)[C@H](CC(C)C)NC(=O)[C@H](Cc1ccccc1)NC(=O)[C@H](CCC(=O)O)NC(=O)[C@H](C)NC(=O)[C@H](CC(C)C)NC(=O)[C@H](CCCNC(=N)N)NC(=O)[C@H](CCC(N)=O)NC(=O)[C@@H](NC(=O)[C@H](C)NC(=O)[C@@H]1CSSC[C@H](NC(=O)[C@H](CCCCN)NC(=O)[C@H](CCC(=O)O)NC(=O)CC[C@H](NC(=O)CCCCCCCCCCCCCCCCC(=O)O)C(=O)O)C(=O)N[C@@H](CC(N)=O)C(=O)N[C@@H]([C@@H](C)O)C(=O)N[C@@H](C)C(=O)N[C@@H]([C@@H](C)O)C(=O)N1)[C@@H](C)O)C(=O)N[C@@H](CC(C)C)C(=O)N1CCC[C@H]1C(=O)N1CCC[C@H]1C(=O)N[C@H](C(=O)N[C@@H](CC(N)=O)C(=O)N[C@H](C(=O)NCC(=O)N[C@@H](CO)C(=O)N[C@@H](CC(N)=O)C(=O)N[C@H](C(=O)N[C@@H](Cc1ccc(O)cc1)C(N)=O)[C@@H](C)O)C(C)C)[C@@H](C)O [Example 42, N-alpha-[(S)-4-Carboxy-4-(17-carboxyheptadecanoylamino)butyryl]-Glu-[Glu14,His17]-pramlintide] ({C18 diacid-γGlu}-EKCNTATCATQRLAEFLHHSSNNFGPILPPTNVGSNTY-NH2; disulfide 3-8 (inferred)) |
| 46.9 pM | 79.2 pM | 122 pM | 433 pM | > 200 µM | > 200 µM | 197 µM (≈ 872 µg/mL) | > 200 µM | > 200 µM | > 200 µM | > 200 µM | > 200 µM | 169 µM (≈ 748 µg/mL) | 169 µM (≈ 748 µg/mL) | 169 µM (≈ 748 µg/mL) | CC[C@H](C)[C@H](NC(=O)[C@@H]1CCCN1C(=O)CNC(=O)[C@H](Cc1ccccc1)NC(=O)[C@H](CC(N)=O)NC(=O)[C@H](CC(N)=O)NC(=O)[C@H](CO)NC(=O)[C@H](CO)NC(=O)[C@H](Cc1c[nH]cn1)NC(=O)[C@H](Cc1c[nH]cn1)NC(=O)[C@H](CC(C)C)NC(=O)[C@H](Cc1ccccc1)NC(=O)[C@H](CCC(=O)O)NC(=O)[C@H](C)NC(=O)[C@H](CC(C)C)NC(=O)[C@H](CCCNC(=N)N)NC(=O)[C@H](CCC(N)=O)NC(=O)[C@@H](NC(=O)[C@H](C)NC(=O)[C@@H]1CSSC[C@H](NC(=O)[C@H](CCCCN)NC(=O)CC[C@H](NC(=O)CCCCCCCCCCCCCCCCC(=O)O)C(=O)O)C(=O)N[C@@H](CC(N)=O)C(=O)N[C@@H]([C@@H](C)O)C(=O)N[C@@H](C)C(=O)N[C@@H]([C@@H](C)O)C(=O)N1)[C@@H](C)O)C(=O)N[C@@H](CC(C)C)C(=O)N1CCC[C@H]1C(=O)N1CCC[C@H]1C(=O)N[C@H](C(=O)N[C@@H](CC(N)=O)C(=O)N[C@H](C(=O)NCC(=O)N[C@@H](CO)C(=O)N[C@@H](CC(N)=O)C(=O)N[C@H](C(=O)N[C@@H](Cc1ccc(O)cc1)C(N)=O)[C@@H](C)O)C(C)C)[C@@H](C)O [Example 46, N-alpha-[(S)-4-Carboxy-4-(17-carboxyheptadecanoylamino)butyryl]-[Glu14,His17]-pramlintide] ({C18 diacid-γGlu}-KCNTATCATQRLAEFLHHSSNNFGPILPPTNVGSNTY-NH2; disulfide 2-7 (inferred); C-terminus assumed) |
